Test results taken from ChEMBL document CHEMBL4420062, “Tfpi inhibitors and methods of use” (2013).
Calls of active or inactive are those of the source. No cut-off for these calls is given here.

Columns and labels:
Plasma [1] = assay: (§1) Effect on blood coagulation parameters in plasma isolated from hemophilia A patient assessed as clotting time at […] by rotation thromboelastography (reference value: 2907 secs); type: functional, Homo sapiens
Plasma [2] = assay: Effect on blood coagulation parameters in plasma isolated from hemophilia A patient at 40 nM by rotation thromboelastography (reference value: 0%); type: functional, Homo sapiens
[3] = Stability in human plasma assessed as parent compound remaining after 24 hrs; type: ADME, cell-free; conditions: read-out: Stability
Plasma [4] = assay: Effect on blood coagulation parameters in plasma isolated from hemophilia A patient at 120 nM by rotation thromboelastography (reference value: 0%); type: functional, Homo sapiens
Plasma [5] = assay: (§2) Effect on blood coagulation parameters in plasma isolated from hemophilia A patient assessed as clot formation time at […] by rotation thromboelastography (reference value: 1540 secs); type: functional, Homo sapiens
Plasma [6] = assay: as §1; type: functional, Homo sapiens; remark: listed apart in the source
Plasma [7] = assay: Effect on blood coagulation parameters in plasma isolated from hemophilia A patient assessed as maximum clot firmness at 40 nM by rotation thromboelastography; type: functional, Homo sapiens
Plasma [8] = assay: (§3) Effect on blood coagulation parameters in plasma isolated from hemophilia A patient at […] by rotation thromboelastography (reference value: 0%); type: functional, Homo sapiens
Plasma [9] = assay: as §3; type: functional, Homo sapiens; remark: listed apart in the source
Plasma [10] = assay: Effect on blood coagulation parameters in plasma isolated from hemophilia A patient assessed as clot formation time at 40 nM by rotation thromboelastography (reference value: 1540 secs); type: functional, Homo sapiens
[11] = Stability in mouse plasma assessed as parent compound remaining after 24 hrs; type: ADME, cell-free; conditions: read-out: Stability
Plasma [12] = assay: Effect on blood coagulation parameters in plasma isolated from hemophilia A patient assessed as clotting time at 40 nM by rotation thromboelastography (reference value: 2907 secs); type: functional, Homo sapiens
Plasma [13] = assay: Effect on blood coagulation parameters in plasma isolated from hemophilia A patient assessed as clot formation time at 120 nM by rotation thromboelastography (reference value: 1540 secs); type: functional, Homo sapiens
Plasma [14] = assay: as §2; type: functional, Homo sapiens; remark: listed apart in the source
Plasma [15] = assay: Effect on blood coagulation parameters in plasma isolated from hemophilia A patient assessed as clotting time at 120 nM by rotation thromboelastography (reference value: 2907 secs); type: functional, Homo sapiens
Plasma [16] = assay: Effect on blood coagulation parameters in plasma isolated from hemophilia A patient assessed as maximum clot firmness at 120 nM by rotation thromboelastography; type: functional, Homo sapiens
Callithrix = conditions: Plasma, 10 uM
[17] = target: Tissue factor pathway inhibitor (Homo sapiens) (UniProt P10646); assay: Inhibition of TFPI in human plasma with induced factor-8 deficiency assessed as increase in thrombin generation by measuring FEIBA at 10 uM using thrombin-specific fluorogenic substrate Z-Gly-Gly-Arg-AMC by calibrated automated thrombography relative to inhibitory polyclonal anti-TFPI antibody; type: cell-free
[18] = target: T1, Tissue factor pathway inhibitor (Homo sapiens, UniProt P10646); assay: Inhibition of TFPI in human plasma with induced factor-8 deficiency assessed as increase in thrombin generation by measuring FEIBA at 10 uM using thrombin-specific fluorogenic substrate Z-Gly-Gly-Arg-AMC by calibrated automated thrombography; type: cell-free
T1 sequence (P10646 whole entry): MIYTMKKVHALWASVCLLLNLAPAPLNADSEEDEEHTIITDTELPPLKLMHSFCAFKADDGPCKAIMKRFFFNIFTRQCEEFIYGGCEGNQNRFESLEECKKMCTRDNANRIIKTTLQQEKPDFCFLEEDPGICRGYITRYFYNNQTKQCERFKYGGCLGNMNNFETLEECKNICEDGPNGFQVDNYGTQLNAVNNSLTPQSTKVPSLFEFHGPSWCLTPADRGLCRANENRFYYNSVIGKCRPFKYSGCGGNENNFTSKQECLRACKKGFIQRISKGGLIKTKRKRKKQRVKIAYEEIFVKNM

Row | Structure (SMILES) | remaining at 24 h [3] | remaining at 24 h [11] | also measured
1 | CCN1C(=O)CC(SC[C@H](NC(=O)[C@H](CC(C)C)NC(=O)[C@H](CCCCN)NC(=O)[C@H](C)NC(=O)C(C)(C)NC(=O)[C@H](CC(C)C)NC(=O)[C@H](CCCNC(=N)N)NC(=O)[C@H](CCC(=O)O)NC(=O)[C@H](Cc2ccccc2)NC(=O)[C@H](Cc2ccc(O)cc2)NC(=O)CNC(=O)[C@H](CC(=O)O)NC(=O)[C@@H](NC(=O)[C@H](Cc2cnc[nH]2)NC(=O)[C@@H](NC(=O)[C@H](CC(N)=O)NC(=O)[C@H]2CCCN2C(=O)[C@H](CCCCN)NC(=O)[C@H](CO)NC(=O)[C@H](CCC(N)=O)NC(=O)[C@H](Cc2ccccc2)NC(C)=O)C(C)C)C(C)C)C(N)=O)C1=O (stereo not given in full) | 10 to 23.8% | 10 to 15.9% | Time (Plasma [1]): 2249 s; Activity (Plasma [2]): 119%; Activity (Plasma [4]): 139%; Time (Plasma [5]): 2488 s; Time (Plasma [6]): 2901 s; Activity (Plasma [7]): 64 mm; Activity (Plasma [8]): 0%; Activity (Plasma [9]): 44%; Time (Plasma [10]): 457 s; Time (Plasma [12]): 1143 s; Time (Plasma [13]): 219 s; Time (Plasma [14]): 1480 s; Time (Plasma [15]): 853 s; Activity (Plasma [16]): 64 mm
2 | CSCC[C@@H]1NC(=O)[C@H](C)NC(=O)[C@@H](NC(=O)[C@H](Cc2cnc[nH]2)NC(=O)[C@H](Cc2c[nH]c3ccccc23)NC(=O)[C@H](CCCCN)NC(=O)[C@H](Cc2ccc(O)cc2)NC(=O)[C@H](Cc2ccc(O)cc2)NC(=O)[C@H](CO)NC(C)=O)CSSC[C@@H](C(=O)N[C@H](C(=O)N[C@@H](Cc2c[nH]c3ccccc23)C(=O)N[C@H](C(=O)N[C@@H](CCCCN)C(=O)N[C@@H](Cc2ccccc2)C(N)=O)C(C)C)C(C)C)NC(=O)[C@H]([C@@H](C)O)NC(=O)[C@H](CCSC)NC(=O)[C@H]([C@@H](C)O)NC(=O)CNC(=O)[C@@H](CCCCN)NC(=O)[C@H](CCSC)NC(=O)[C@H](CC(=O)O)NC(=O)[C@H](CCCNC(=N)N)NC1=O | – | – | inhibition (Callithrix): inactive
3 | CC(=O)N[C@@H](Cc1ccccc1)C(=O)N[C@@H](CCC(N)=O)C(=O)N[C@@H](CO)C(=O)N[C@@H](CCCCN)C(=O)N1CCC[C@@H]1C(=O)N[C@@H](CC(N)=O)C(=O)N[C@H](C(=O)N[C@@H](Cc1cnc[nH]1)C(=O)N[C@H](C(=O)N[C@@H](CC(=O)O)C(=O)NCC(=O)N[C@@H](Cc1ccc(O)cc1)C(=O)N[C@@H](Cc1csc2ccccc12)C(=O)N[C@@H](CCC(=O)O)C(=O)N[C@@H](CCCNC(=N)N)C(=O)N[C@@H](CC(C)C)C(=O)NC(C)(C)C(=O)N[C@@H](C)C(=O)N[C@@H](CCCCN)C(=O)N[C@@H](CC(C)C)C(N)=O)C(C)C)C(C)C | 46.6% | 6.1% | –
4 | CC(=O)N[C@@H](Cc1ccccc1)C(=O)N[C@@H](CCC(N)=O)C(=O)N[C@@H](CO)C(=O)N[C@@H](CCCCN)C(=O)N1CCC[C@@H]1C(=O)N[C@@H](CC(N)=O)C(=O)N[C@H](C(=O)N[C@@H](Cc1ccc2ccccc2c1)C(=O)N[C@H](C(=O)N[C@@H](CC(=O)O)C(=O)N[C@H](C)C(=O)N[C@@H](Cc1ccc(O)cc1)C(=O)N[C@@H](Cc1ccccc1)C(=O)N[C@@H](CCC(=O)O)C(=O)N[C@@H](CCCNC(=N)N)C(=O)N[C@@H](CC(C)C)C(=O)NC(C)(C)C(=O)N[C@@H](C)C(=O)N[C@@H](CCCCN)C(=O)N[C@@H](CC(C)C)C(N)=O)C(C)(C)C)C(C)C | 88.8% | 51.1% | –
5 | CCCC[C@H](NC(=O)C(C)(C)NC(=O)[C@H](CC(C)C)NC(=O)[C@H](CCCNC(=N)N)NC(=O)[C@H](CCC(=O)O)NC(=O)[C@H](Cc1ccccc1)NC(=O)[C@H](Cc1ccc(O)cc1)NC(=O)CNC(=O)[C@H](CC(=O)O)NC(=O)[C@@H](NC(=O)[C@H](Cc1cnc[nH]1)NC(=O)[C@@H](NC(=O)[C@H](CC(N)=O)NC(=O)[C@H]1CCCN1C(=O)[C@H](CCCCN)NC(=O)[C@H](CO)NC(=O)[C@H](CCC(N)=O)NC(=O)[C@H](Cc1ccccc1)NC(C)=O)C(C)C)C(C)(C)C)C(=O)N[C@@H](CCCCN)C(=O)N[C@@H](CC(C)C)C(N)=O | 90.1% | 17% | –
6 | CC(=O)N[C@@H](Cc1ccccc1)C(=O)N[C@@H](CCC(N)=O)C(=O)N[C@@H](CO)C(=O)N[C@@H](CCCCN)C(=O)N1CCC[C@@H]1C(=O)N[C@@H](CC(N)=O)C(=O)N[C@H](C(=O)N[C@@H](Cc1cnc[nH]1)C(=O)N[C@H](C(=O)N[C@@H](CC(=O)O)C(=O)NCC(=O)N[C@@H](Cc1ccc(O)cc1)C(=O)N[C@@H](Cc1ccccc1)C(=O)N[C@@H](CCC(=O)O)C(=O)N[C@@H](CCCNC(=N)N)C(=O)N[C@@H](CC(C)C)C(=O)NC(C)(C)C(=O)N[C@@H](CC(C)C)C(=O)N[C@@H](CCCCN)C(=O)N[C@@H](CC(C)C)C(N)=O)C(C)(C)C)C(C)C | 78.7% | 13.7% | –
7 | CC(=O)N[C@@H](Cc1ccccc1)C(=O)N[C@@H](CCC(N)=O)C(=O)N[C@@H](CO)C(=O)N[C@@H](CCCCN)C(=O)N1CCC[C@@H]1C(=O)N[C@@H](CC(N)=O)C(=O)N[C@H](C(=O)N[C@@H](Cc1cnc[nH]1)C(=O)N[C@H](C(=O)N[C@@H](CC(=O)O)C(=O)N[C@H](C)C(=O)N[C@@H](Cc1ccc(O)cc1)C(=O)N[C@@H](Cc1ccccc1)C(=O)N[C@@H](CCC(=O)O)C(=O)N[C@@H](CCCNC(=N)N)C(=O)N[C@@H](CC(C)C)C(=O)NC(C)(C)C(=O)N[C@@H](C)C(=O)N[C@@H](CCCCN)C(=O)N[C@@H](CC(C)C)C(N)=O)C(C)(C)C)C(C)C | 100% | 47.2% | –
8 | CC(=O)N[C@@H](Cc1cccs1)C(=O)N[C@@H](CCC(N)=O)C(=O)N[C@@H](CO)C(=O)N[C@@H](CCCCN)C(=O)N1CCC[C@@H]1C(=O)N[C@@H](CC(N)=O)C(=O)N[C@H](C(=O)N[C@@H](Cc1cnc[nH]1)C(=O)N[C@H](C(=O)N[C@@H](CC(=O)O)C(=O)NCC(=O)N[C@@H](Cc1ccc(O)cc1)C(=O)N[C@@H](Cc1ccccc1)C(=O)N[C@@H](CCC(=O)O)C(=O)N[C@@H](CCCNC(=N)N)C(=O)N[C@@H](CC(C)C)C(=O)NC(C)(C)C(=O)N[C@@H](C)C(=O)N[C@@H](CCCCN)C(=O)N[C@@H](CC(C)C)C(N)=O)C(C)C)C(C)C | 19.8% | 1.2% | –
9 | CC(=O)NCSC[C@H](NC(=O)[C@H]1CCCN1C(=O)[C@H](CCCCN)NC(=O)[C@H](CO)NC(=O)[C@H](CCC(N)=O)NC(=O)[C@H](Cc1ccccc1)NC(C)=O)C(=O)N[C@H](C(=O)N[C@@H](Cc1c[nH]cn1)C(=O)N[C@H](C(=O)N[C@@H](CC(=O)O)C(=O)NCC(=O)N[C@@H](Cc1ccc(O)cc1)C(=O)N[C@@H](Cc1ccccc1)C(=O)N[C@@H](CCC(=O)O)C(=O)N[C@@H](CCCNC(=N)N)C(=O)N[C@@H](CC(C)C)C(=O)NC(C)(C)C(=O)N[C@@H](C)C(=O)N[C@@H](CCCCN)C(=O)N[C@@H](CC(C)C)C(N)=O)C(C)(C)C)C(C)C | 81.2% | 36.1% | –
10 | CSCC[C@@H]1NC(=O)[C@H](C)NC(=O)[C@H](NC(=O)[C@H](Cc2cnc[nH]2)NC(=O)[C@H](Cc2c[nH]c3ccccc23)NC(=O)[C@H](CCCCN)NC(=O)[C@H](Cc2ccc(O)cc2)NC(=O)[C@H](Cc2cnc[nH]2)NC(=O)[C@H](CO)NC(C)=O)CSSC[C@@H](C(=O)N[C@H](C(=O)N[C@@H](Cc2c[nH]c3ccccc23)C(=O)N[C@H](C(=O)N[C@@H](CCCCN)C(=O)N[C@@H](Cc2ccccc2)C(N)=O)C(C)C)C(C)C)NC(=O)[C@H](CO)NC(=O)[C@H](CCSC)NC(=O)[C@H]([C@@H](C)O)NC(=O)CNC(=O)[C@H]([C@@H](C)O)NC(=O)[C@H](CCSC)NC(=O)[C@H](CC(=O)O)NC(=O)[C@H](CCCNC(=N)N)NC1=O | – | – | inhibition [17]: 55.9%; EC50 [18]: 4.8 nM
11 | CC(=O)N[C@@H](Cc1ccccc1)C(=O)N[C@@H](CCC(N)=O)C(=O)N[C@@H](CO)C(=O)N[C@@H](CCCCN)C(=O)N1CCC[C@@H]1C(=O)N[C@@H](CC(N)=O)C(=O)N[C@H](C(=O)N[C@@H](Cc1cnc[nH]1)C(=O)N[C@H](C(=O)N[C@@H](CC(=O)O)C(=O)NCC(=O)N[C@@H](Cc1ccc(O)cc1)C(=O)N[C@@H](Cc1ccccc1)C(=O)N[C@@H](CCC(=O)O)C(=O)N[C@@H](CCCNC(=N)N)C(=O)N[C@@H](CC(C)C)C(=O)NC(C)(C)C(=O)N[C@@H](C)C(=O)N[C@@H](CCCCN)C(=O)N[C@@H](CC(C)C)C(N)=O)c1ccccc1)C(C)C | 34.7% | 4.8% | –
